# Laboratory results taken from patent publication US20140287931A1, “METHODS AND COMPOSITIONS FOR PREDICTING RESISTANCE TO ANTICANCER TREATMENT” (Stichting het Nederlands Kanker Instituut - Antoni van …, priority 2011, published 2014).
# Entries after “also recorded” stand apart in the source; their conditions may differ. Like-named read-outs stand apart in the source and are kept apart here.
# Columns and labels:
# [1] = test system: HCC 1954 breast cancer cells; assay: shRNA bar code screen in HCC 1954 breast cancer cells; type: cell-based
# [2] = test system: PC9 cells (EGFRdelE746-A750); type: cell-based, human
# Protocol: (§1) Single cell suspensions of the lung cancer cell lines were seeded into 6-well plates (2×10^4 cells/well) and cultured both in the absence and presence of the ALK inhibitors. At the endpoints of colony formation assays, cells were fixed with formaldehyde, stained with crystal violet (0,1% w/v) and photographed. All relevant assays were performed independently at least three times. All knockdown and overexpression experiments were done by retroviral or lentiviral infections.
# (§2) Subclones of each NSCLC cell line expressing the murine ecotropic receptor were generated and used for all experiments shown. Retroviral infections were performed using Phoenix cells as producers of retroviral supernatants using 2.5-3 μg of plasmid DNA as described (http://www(dot)stanford(dot)edu/group/nolan/retroviralsystems/phx(dot)html). […] For transfections of Phoenix cells, Applicants seeded 1.0×10^6 cells in a 6-well dish in the morning and transfected the cells 6-8 hours later. Cells were refreshed the next day in the morning and afternoon. Viral supernatant was harvested the day thereafter for infections of the target cells. […] Infected NSCLC cells were selected for successful retroviral integration using 2 μg/ml of puromycin.
# [3] = test system: H3122 cells; assay: Colony formation assay in H3122 cells with or without shRNA knockdown; type: cell-based, human; details: for sensitivity to ALK inhibitors after restoration of Med12: H3122 MED12 knockdown cells (shMED12_TRC#3, #5) plus mouse Med12 cDNA; for sensitivity to ALK inhibitors after restoration of Med12 / sensitivity to ALK inhibitors after restoration of SMARCE1: 300 nM Crizotinib or 2.5 nM NVP-TAE684; for sensitivity to ALK inhibitors after restoration of SMARCE1: H3122 SMARCE1 knockdown cells plus SMARCE1-ND; for resistance to ALK inhibitors on suppression of ARID1A or SMARCE1, colony formation: H3122 expressing independent shARID1A or shSMARCE1 vectors; for resistance to ALK inhibitors on suppression of ARID1A or SMARCE1, colony formation / resistance to ALK inhibitors on suppression of MED12, colony formation / resistance to ALK inhibitors, colony formation: 300 nM Crizotinib or 2.5 nM NVP-TAE684, 4 weeks; for resistance to ALK inhibitors on suppression of MED12, colony formation: H3122 expressing independent shMED12 vectors (pRS #3; pLKO TRC#2, #3, #5); for resistance to ALK inhibitors, colony formation: H3122 expressing library shMED12#1, shMED12#2, shARID1A or shSMARCE1
# [4] = test system: EBC-1 (MET-amplified) cells; details: 200 nM Crizotinib; for sensitivity to MET inhibitor after restoration of SMARCE1: EBC-1 SMARCE1-knockdown cells plus SMARCE1-ND
# Protocol: as §1, §2
# [5] = test system: H1993 (MET-amplified) cells; details: 200 nM Crizotinib; for sensitivity to MET inhibitor after restoration of SMARCE1: H1993 SMARCE1-knockdown cells plus SMARCE1-ND; for resistance to MET inhibitor on suppression of ARID1A: H1993 expressing shARID1A #1 and #2, 4 weeks
# [6] = test system: SKBR3 breast cancer cells; assay: shRNA bar code screen in SKBR3 breast cancer cells; type: cell-based
# [7] = test system: DAB2IP mRNA; assay: DAB2IP knockdown by qRT-PCR in PC9 cells; type: cell-based, human
# Protocol: QRT-PCR assays were carried out to measure mRNA levels of genes using 7500 Fast Real-Time PCR System (Applied Biosystems). Total RNA was isolated using Trizol (Invitrogen) and 1 μg of total RNA was used for cDNA synthesis using superscrpipt 11 reverse transcriptase (Invitrogen) and random hexamer primers (Invitrogen). Relative mRNA levels of each gene shown were normalized to the expression of the house keeping gene GAPDH. The sequences of the primers for assays using SYBR® Green master mix (Roche) are listed below (h, human: m, mouse).
# [8] = test system: T47D breast cancer cells; assay: Colony formation assay in T47D cells with ARID1A knockdown; type: cell-based; details: 10 and 20 nM AZD8055, 4 weeks
# Protocol: (§3) (B) Validation of independent shRNAs (in pLKO vector) targeting ARID1A in T47D breast cancer cells. TIhe functional phenotypes of non-overlapping shARID1A vectors are indicated by the colony formation assay in 10 and 20 nM small molecule mTOR inhibitor AZD8055. The cells were fixed, stained and photographed after 2 weeks (untreated) or 4 weeks (inhibitor treatment). Ectopic expression of a mutant of cyclin DI (pBpDITA) served as a control in the experiment. (C) Validation of independent shRNAs (in pLKO vector) targeting ARID1A in MCF7 breast cancer cells. The functional phenotypes of non-overlapping shARIDJA vectors are indicated by the colony formation assay in 20 and 40 nM small molecule mTOR inhibitor AZD8055. The cells were fixed, stained and photographed after 2 weeks (untreated) or 4 weeks (inhibitor treatment). (D). Quantification of ARID1A mRNA levels by QRT-PCR after knockdown of ARID1A in MCF7 breast cancer cells.
# [9] = test system: MCF7 breast cancer cells; assay: Colony formation assay in MCF7 cells with ARID1A knockdown; type: cell-based; details: 20 and 40 nM AZD8055, 4 weeks
# Protocol: as §3
# [10] = test system: BT474 breast cancer cells; assay: Colony formation assay in BT474 cells with ARID1A knockdown; type: cell-based, human; details: 25 nM AZD8055 or 2 ug/ml trastuzumab, 4 weeks
# Description: The cells were fixed, stained and photographed after 2 weeks (untreated) or 4 weeks (inhibitor treatment).
# [11] = test system: PI3K pathway members (p473-AKT, p235/236-S6RP); assay: Immunoblot of PI3K pathway members in BT474 cells; type: cell-based, human; details: BT474 expressing three independent shARID1A vectors versus shctrl; increasing amounts of AZD8055, three hours
# Protocol: BT474 cells stably expressing either shctrl, shTSC2 or three independent shARID1A vectors were exposed to increasing amounts of the mTOR inhibitor AZD8055. After three hours, cell lysates were prepared and PI3K pathway members were immunoblotted.
# [12] = test system: phospho-AKT; assay: Western blotting of phospho-AKT in H3122 cells; type: cell-based, human; details: H3122 shSMARCE1 cells versus controls; 20 nM NVP-TAE684, 24 hours
# Protocol: (B) SMARCE1^KD cells have elevated phospho-AKT levels in EML4-ALK cells. H3122 cells expressing controls (pRS or shGFP) or shSMARCE1 vectors were gown in the absence or presence of 20 nM NVP-TAE684 for 24 hours and the cell lysates were harvested for western blotting analysis. (C) MED12^KD cells have elevated phospho-AKT levels in EGFR mutant cells. PC9 cells expressing controls (pRS or shGFP) or shSMARCE1 vectors were gown in the absence or presence of 25 nM Gefitinib for 8 hours and the cell lysates were harvested for western blotting analysis.
# Given that loss of MED2 or SMARCE1 causes resistance to multiple tyrosine kinase inhibitors in NSCLC cell lines, Applicants asked whether the activity of downstream components of receptor tyrosine kinase signaling is altered. AKT is a key downstream component and its phosphorylation status positively correlates with its activation that can be determined by specific antibodies against the phosphorylated form of AKT. 1-13122 cells were infected with two independent controls shRNA vectors or shRNAs targeting either MED12 or SMARCE1 and confirmed loss of MED112 or SMARCE1 protein by immunoblotting (FIGS. 15A and B). The cells were also treated of left untreated with the ALK inhibitor NVP-TAE684, to address the activation status of AKT in the presence or absence of the inhibitor. […]
# [13] = test system: human NSCLC cell lines that harbor EML4-ALK translocations; details: cited from earlier work
molecule,measurement,setting,value
Cn1c(=O)n(-c2ccc(C(C)(C)C#N)cc2)c2c3cc(-c4cnc5ccccc5c4)ccc3ncc21 [NVPBEZ235],resistance on knockdown of ARID1A,[1],conferred resistance
"shDAB2IP#2: lentiviral pLKO shRNA vector from the TRC library targeting DAB2IP, sequence GACTCCAAACAGAAGATCATT (pLKO lentiviral vector)",toxicity of shRNA vector,[2],exhibited toxicity
C[C@@H](Oc1cc(-c2cnn(C3CCNCC3)c2)cnc1N)c1c(Cl)ccc(F)c1Cl [crizotinib],sensitivity to ALK inhibitors after restoration of Med12,[3],re-sensitizes
same,sensitivity to ALK inhibitors after restoration of SMARCE1,[3],re-sensitizes
same,"resistance to ALK inhibitors on suppression of ARID1A or SMARCE1, colony formation",[3],confers drug resistance
same,"resistance to ALK inhibitors on suppression of MED12, colony formation",[3],confers drug resistance
same,"resistance to ALK inhibitors, colony formation",[3],confer resistance
same,sensitivity to MET inhibitor after restoration of SMARCE1,[4],restored the sensitivity
same,sensitivity to MET inhibitor after restoration of SMARCE1,[4]; listed as Crizotinib,re-sensitizes
same,resistance to MET inhibitor on suppression of SMARCE1,[4]; EBC-1 expressing shSMARCE1#1 and #2,conferred resistance
same,sensitivity to MET inhibitor after restoration of SMARCE1,[5],restored the sensitivity
same,sensitivity to MET inhibitor after restoration of SMARCE1,[5]; listed as Crizotinib,re-sensitizes
same,resistance to MET inhibitor on suppression of ARID1A,[5],conferred resistance
same,resistance to MET inhibitor on suppression of ARID1A,[5]; listed as Crizotinib,are resistance
same,resistance to MET inhibitor on suppression of SMARCE1,[5]; H1993 expressing shSMARCE1#1 and #2,conferred resistance
Oc1cccc(-c2nc(N3CCOCC3)c3oc4ncccc4c3n2)c1 [PI-103],resistance on knockdown of ARID1A (SMARCF1),[6],conferred resistance
"shDAB2IP#5: lentiviral pLKO shRNA vector from the TRC library targeting DAB2IP, sequence GCACATCACTAACCACTACCT (pLKO lentiviral vector)",knockdown of DAB2IP,[7],failed to induce a knockdown
COc1ccc(-c2ccc3c(N4CCOC[C@@H]4C)nc(N4CCOC[C@@H]4C)nc3n2)cc1CO [AZD8055],"resistance on suppression of ARID1A, colony formation",[8],conferred resistance; also recorded: confers resistance
same,"resistance on suppression of ARID1A, colony formation",[9],conferred resistance; also recorded: confers resistance
same,"resistance on knockdown of ARID1A, colony formation",[10],conferred resistance
same,phosphorylated AKT (p473-AKT) levels in the presence of inhibitor,[11],maintained higher levels
same,phosphorylated S6RP (p235/236-S6RP) levels in the presence of inhibitor,[11],maintained higher levels
COc1cc(N2CCC(N3CCN(C)CC3)CC2)ccc1Nc1ncc(Cl)c(Nc2ccccc2S(=O)(=O)C(C)C)n1 [NVP-TAE684],sensitivity to ALK inhibitors after restoration of Med12,[3],re-sensitizes
same,sensitivity to ALK inhibitors after restoration of SMARCE1,[3],re-sensitizes
same,"resistance to ALK inhibitors on suppression of ARID1A or SMARCE1, colony formation",[3],confers drug resistance
same,"resistance to ALK inhibitors on suppression of MED12, colony formation",[3],confers drug resistance
same,"resistance to ALK inhibitors, colony formation",[3],confer resistance
same,phosphorylated AKT levels in the presence of inhibitor,[12],maintained higher levels
same,inhibition of EML4-ALK NSCLC cell lines,[13],potently inhibit
